Assays:
AXL = target: T1, AXL (Homo sapiens, UniProt P30530); assay: Filter-binding radiometric kinase activity assay (KinaseProfiler, Eurofins); format: biochemical; conditions: 1 µM compound; read-out: % Residual enzymatic activity at 1 µM AXL
T1 construct: purchased Eurofins Discovery (Kinase Profiler service)
T1 sequence (P30530 26-894): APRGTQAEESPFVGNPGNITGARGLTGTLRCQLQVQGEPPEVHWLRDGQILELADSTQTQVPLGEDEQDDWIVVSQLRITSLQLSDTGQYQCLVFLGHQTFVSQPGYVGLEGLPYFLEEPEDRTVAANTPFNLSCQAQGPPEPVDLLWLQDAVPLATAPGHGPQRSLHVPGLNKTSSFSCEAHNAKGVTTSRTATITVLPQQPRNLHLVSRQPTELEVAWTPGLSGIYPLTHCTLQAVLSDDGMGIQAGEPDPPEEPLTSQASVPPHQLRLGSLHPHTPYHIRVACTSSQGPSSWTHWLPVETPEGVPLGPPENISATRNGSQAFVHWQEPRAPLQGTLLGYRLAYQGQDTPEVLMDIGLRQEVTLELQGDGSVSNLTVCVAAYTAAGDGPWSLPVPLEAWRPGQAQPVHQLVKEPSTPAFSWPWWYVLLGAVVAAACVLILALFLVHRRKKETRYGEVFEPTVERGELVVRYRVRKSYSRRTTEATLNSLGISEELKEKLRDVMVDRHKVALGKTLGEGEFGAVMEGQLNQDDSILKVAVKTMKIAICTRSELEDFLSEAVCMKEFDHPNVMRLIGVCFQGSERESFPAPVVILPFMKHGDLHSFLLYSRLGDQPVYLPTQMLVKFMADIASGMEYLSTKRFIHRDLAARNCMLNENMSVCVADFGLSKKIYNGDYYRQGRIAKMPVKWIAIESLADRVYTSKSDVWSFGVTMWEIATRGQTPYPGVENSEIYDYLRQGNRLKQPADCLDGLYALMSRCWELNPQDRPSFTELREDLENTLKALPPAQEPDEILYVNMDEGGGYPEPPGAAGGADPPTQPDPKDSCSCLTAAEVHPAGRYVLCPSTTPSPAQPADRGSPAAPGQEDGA
Procedure: (§1) Filter-binding radiometric kinase activity assay (Kinase Profiler™) from Eurofins Discovery was used to determine the % of inhibition and/or IC50 values. […] The reaction is initiated by the addition of the Mg/ATP mixture. After incubation for 40 minutes at room temperature, the reaction is stopped by the addition of phosphoric acid to a concentration of 0.5%. 10 µL of the reaction is then spotted onto a P30 filter mat and washed four times for 4 minutes in 0.425% phosphoric acid and once in methanol prior to drying and scintillation counting. The IC50 values were derived by fitting a sigmoidal dose-response curve to a plot of assay readout over inhibitor concentration. All fits were computed with the GraphPad Prism Software (San Diego, CA, United States of America). Ki values were derived from IC5o values using Cheng Prusoff equation (Cheng Y et al., Biochem Pharmacol 22(23):3099-3108, 1973).

Mer = target: T2, Mer (Homo sapiens, UniProt Q12866); assay: as above; format: biochemical; conditions: 1 µM compound; read-out: % Residual enzymatic activity at 1 µM Mer
T2 construct: purchased Eurofins Discovery (Kinase Profiler service)
T2 sequence (Q12866 21-999): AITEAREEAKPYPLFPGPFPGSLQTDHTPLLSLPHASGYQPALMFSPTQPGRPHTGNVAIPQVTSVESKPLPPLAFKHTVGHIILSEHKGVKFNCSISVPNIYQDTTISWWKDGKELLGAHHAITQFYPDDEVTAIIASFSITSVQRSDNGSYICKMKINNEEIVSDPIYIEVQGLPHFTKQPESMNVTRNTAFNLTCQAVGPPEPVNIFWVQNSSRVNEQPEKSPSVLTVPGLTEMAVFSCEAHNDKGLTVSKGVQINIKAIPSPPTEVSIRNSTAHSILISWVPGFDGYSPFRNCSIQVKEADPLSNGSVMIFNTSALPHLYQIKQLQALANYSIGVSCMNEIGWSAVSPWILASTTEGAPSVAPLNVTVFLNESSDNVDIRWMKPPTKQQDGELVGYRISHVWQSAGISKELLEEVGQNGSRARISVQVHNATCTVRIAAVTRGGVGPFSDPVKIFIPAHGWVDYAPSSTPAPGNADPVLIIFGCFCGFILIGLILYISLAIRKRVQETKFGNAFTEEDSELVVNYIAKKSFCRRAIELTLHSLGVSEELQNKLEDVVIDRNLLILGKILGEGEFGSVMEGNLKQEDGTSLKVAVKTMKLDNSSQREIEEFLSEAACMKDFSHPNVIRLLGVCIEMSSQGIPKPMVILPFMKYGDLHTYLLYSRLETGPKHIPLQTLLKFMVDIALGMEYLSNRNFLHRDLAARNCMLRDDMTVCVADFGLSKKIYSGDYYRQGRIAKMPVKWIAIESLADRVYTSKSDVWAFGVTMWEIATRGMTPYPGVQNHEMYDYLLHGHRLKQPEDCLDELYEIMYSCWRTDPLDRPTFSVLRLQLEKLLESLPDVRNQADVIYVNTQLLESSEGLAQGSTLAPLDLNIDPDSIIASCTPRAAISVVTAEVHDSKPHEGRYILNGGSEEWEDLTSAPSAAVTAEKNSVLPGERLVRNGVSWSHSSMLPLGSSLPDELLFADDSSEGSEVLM
Procedure: as §1

TYRO3 = target: T3, TYRO3 (Homo sapiens, UniProt Q06418); assay: as above; format: biochemical; conditions: 1 µM compound; read-out: % Residual enzymatic activity at 1 µM TYRO3
T3 construct: purchased Eurofins Discovery (Kinase Profiler service)
T3 sequence (Q06418 41-890): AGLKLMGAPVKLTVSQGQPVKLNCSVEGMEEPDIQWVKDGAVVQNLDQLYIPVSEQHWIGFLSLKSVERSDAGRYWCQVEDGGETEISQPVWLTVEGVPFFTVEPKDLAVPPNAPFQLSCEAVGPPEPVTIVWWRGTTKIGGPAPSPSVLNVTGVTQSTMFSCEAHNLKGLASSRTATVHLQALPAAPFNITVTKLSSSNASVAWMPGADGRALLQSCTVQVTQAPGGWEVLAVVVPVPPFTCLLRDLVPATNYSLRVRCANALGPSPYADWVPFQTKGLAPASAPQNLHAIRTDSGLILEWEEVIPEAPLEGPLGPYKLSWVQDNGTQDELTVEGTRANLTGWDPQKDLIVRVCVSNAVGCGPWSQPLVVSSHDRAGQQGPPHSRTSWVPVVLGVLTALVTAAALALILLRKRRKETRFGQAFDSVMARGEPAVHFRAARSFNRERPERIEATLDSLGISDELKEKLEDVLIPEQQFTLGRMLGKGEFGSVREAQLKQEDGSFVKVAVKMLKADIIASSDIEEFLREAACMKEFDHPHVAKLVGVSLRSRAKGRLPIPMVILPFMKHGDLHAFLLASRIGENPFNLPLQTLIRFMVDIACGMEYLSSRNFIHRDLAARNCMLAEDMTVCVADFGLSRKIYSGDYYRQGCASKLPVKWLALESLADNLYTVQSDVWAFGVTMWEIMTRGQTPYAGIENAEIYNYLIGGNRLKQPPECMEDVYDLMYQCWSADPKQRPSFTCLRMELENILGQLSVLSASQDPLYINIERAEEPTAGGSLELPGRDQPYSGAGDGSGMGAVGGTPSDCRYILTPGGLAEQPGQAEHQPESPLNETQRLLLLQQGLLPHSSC
Procedure: as §1

MET = target: T4, MET (Homo sapiens, UniProt P08581); assay: as above; format: biochemical; conditions: 1 µM compound; read-out: % Residual enzymatic activity at 1 µM MET
T4 construct: purchased Eurofins Discovery (Kinase Profiler service)
Procedure: as §1

MV4-11 = assay: Proliferation assay (MTT, leukaemia cancer cell line); format: cell-based; conditions: Homo sapiens; 1 µM compound, MV4-11 cells
Text: Compounds from Example 1 were subjected to standard resazurin and MTT assays on solid tumour and leukaemia cancer cell lines, respectively, as previously reported (Wang S et al., J Med Chem 47:1662-1675, 2004 and Diab S et al., CheMedChem 9:962-972, 2014).

CDK2E = CDK2E (Homo sapiens, UniProt P24941); assay: ADP Glo Kinase assay; format: biochemical; conditions: 1 µM compound; read-out: % Residual enzymatic activity at 1 µM CDK2E
Procedure: (§2) Inhibition of CDKs and FLT3 were determined using ADP Glo Kinase assays, as previously described in International Patent Publication No WO 2017/020065.

FLT3-ITD = assay: ADP Glo Kinase assay; format: biochemical; conditions: 1 µM compound
Procedure: as §2

CDK4D1 = CDK4D1 (Homo sapiens, UniProt P11802); assay: ADP Glo Kinase assay; format: biochemical; conditions: 1 µM compound; read-out: % Residual enzymatic activity at 1 µM CDK4D1
Procedure: as §2

T4 sequence (P08581 25-1390): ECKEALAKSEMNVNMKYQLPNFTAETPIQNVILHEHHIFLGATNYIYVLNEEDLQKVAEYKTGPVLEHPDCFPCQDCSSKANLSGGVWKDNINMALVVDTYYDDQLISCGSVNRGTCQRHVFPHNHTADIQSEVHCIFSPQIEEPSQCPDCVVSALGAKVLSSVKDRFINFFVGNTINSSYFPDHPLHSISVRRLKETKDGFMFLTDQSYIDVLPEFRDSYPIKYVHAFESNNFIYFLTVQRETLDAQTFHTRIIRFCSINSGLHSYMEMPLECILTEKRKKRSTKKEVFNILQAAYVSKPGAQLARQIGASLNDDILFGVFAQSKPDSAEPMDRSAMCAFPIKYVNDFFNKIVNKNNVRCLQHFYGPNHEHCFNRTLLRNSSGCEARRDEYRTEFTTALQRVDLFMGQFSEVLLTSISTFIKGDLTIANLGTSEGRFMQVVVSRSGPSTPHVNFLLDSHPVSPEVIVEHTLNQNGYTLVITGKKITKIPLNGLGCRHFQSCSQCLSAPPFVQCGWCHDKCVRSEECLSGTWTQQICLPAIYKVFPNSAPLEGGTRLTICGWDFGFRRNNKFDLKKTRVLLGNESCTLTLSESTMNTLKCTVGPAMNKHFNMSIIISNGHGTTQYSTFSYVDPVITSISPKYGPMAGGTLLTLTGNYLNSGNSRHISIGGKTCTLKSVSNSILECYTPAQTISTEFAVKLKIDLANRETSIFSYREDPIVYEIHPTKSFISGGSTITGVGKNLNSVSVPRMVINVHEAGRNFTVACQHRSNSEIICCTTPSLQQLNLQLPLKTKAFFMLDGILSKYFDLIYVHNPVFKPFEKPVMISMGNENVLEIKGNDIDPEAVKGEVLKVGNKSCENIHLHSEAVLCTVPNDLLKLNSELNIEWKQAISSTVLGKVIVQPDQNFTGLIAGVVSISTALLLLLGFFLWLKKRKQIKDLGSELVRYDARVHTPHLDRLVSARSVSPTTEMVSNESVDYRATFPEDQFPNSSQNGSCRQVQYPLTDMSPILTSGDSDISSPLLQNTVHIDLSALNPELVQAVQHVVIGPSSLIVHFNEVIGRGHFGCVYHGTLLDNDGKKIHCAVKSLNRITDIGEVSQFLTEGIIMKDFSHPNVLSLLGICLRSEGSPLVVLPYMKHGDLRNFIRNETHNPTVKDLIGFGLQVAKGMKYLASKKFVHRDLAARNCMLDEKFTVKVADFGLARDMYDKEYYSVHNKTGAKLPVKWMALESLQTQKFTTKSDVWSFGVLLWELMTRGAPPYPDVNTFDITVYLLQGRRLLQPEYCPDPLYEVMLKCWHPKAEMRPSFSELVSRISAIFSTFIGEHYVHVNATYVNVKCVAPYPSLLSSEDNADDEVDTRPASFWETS
Chain of CDK4D1 (P11802 whole entry): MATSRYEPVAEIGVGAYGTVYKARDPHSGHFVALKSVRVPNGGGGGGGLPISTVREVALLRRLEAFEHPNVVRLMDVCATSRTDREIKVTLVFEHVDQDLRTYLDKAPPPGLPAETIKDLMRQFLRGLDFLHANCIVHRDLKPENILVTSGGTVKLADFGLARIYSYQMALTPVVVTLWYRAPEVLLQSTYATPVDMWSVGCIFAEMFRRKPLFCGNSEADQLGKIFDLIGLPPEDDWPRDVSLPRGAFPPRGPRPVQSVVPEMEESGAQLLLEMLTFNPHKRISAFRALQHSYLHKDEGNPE
Chain of CDK4D1 (P24385 whole entry partner): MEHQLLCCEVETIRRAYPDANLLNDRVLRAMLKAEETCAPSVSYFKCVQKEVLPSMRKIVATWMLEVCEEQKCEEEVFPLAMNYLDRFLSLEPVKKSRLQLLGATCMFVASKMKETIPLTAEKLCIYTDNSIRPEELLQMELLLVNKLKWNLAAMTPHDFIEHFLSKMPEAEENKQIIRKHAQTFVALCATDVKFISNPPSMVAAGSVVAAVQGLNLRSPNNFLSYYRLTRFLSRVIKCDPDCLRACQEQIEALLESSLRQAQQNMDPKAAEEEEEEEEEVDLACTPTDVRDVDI

Row | SMILES | remaining activity at 1 µM (AXL) | remaining activity at 1 µM (Mer) | remaining activity at 1 µM (TYRO3) | remaining activity at 1 µM (MET) | activity at 1 µM (MV4-11) | remaining activity at 1 µM (CDK2E) | % Residual enzymatic activity at 1 µM FLT3-ITD (FLT3-ITD) | remaining activity at 1 µM (CDK4D1)
1 | CCOc1ccn(-c2ccc(F)cc2)c(=O)c1C(=O)Nc1ccc(Oc2ncnc(N)c2Cl)c(F)c1 [Cmpd 2, N-(4-((6-amino-5-chloropyrimidin-4-yl)oxy)-3-fluorophenyl)-4-ethoxy-1-(4-fluorophenyl)-2-oxo-1,2-dihydropyridine-3-carboxamide] | 2% | 1% | 0% | 2% | 15% | 94% | 52% | 38%
2 | Nc1ncnc(Oc2ccc(NC(=O)c3cccn(-c4ccc(F)cc4)c3=O)cc2Cl)c1Cl [Cmpd 23, N-(4-((6-amino-5-chloropyrimidin-4-yl)oxy)-3-chlorophenyl)-1-(4-fluorophenyl)-2-oxo-1,2-dihydropyridine-3-carboxamide] | 67% | 95% | 63% | 98% | 1% |  | 51% | 

— US20230339889A1, “DERIVATIVES OF 2-OXO-N-(4-(PYRIMIDIN-4-YLOXY/THIO)PHENYL)-1,2-DIHYDROPYRIDINE-3-CARBOXAMIDE FOR USE AS PROTEIN KINASE INHIBITORS FOR THERAPY” (AUCENTRA THERAPEUTICS PTY LTD, priority 2020, published 2023)
